{
  "source": "patent US10238641B2",
  "about": "“Materials and methods for diagnosis, prevention and/or treatment of stress disorders and conditions associated with A-beta peptide aggregation” (The United States of America as represented by the …, priority 2008, dated 2019)",
  "test_system": "rat cortical cells exposed to Aβ1-42",
  "assay": "Aβ toxicity assay, MTT cell viability",
  "format": "cell-based",
  "description": "Primary cortical embryonic rat neurons were incubated with 5 μM Aβ in the presence or absence of various concentrations cotinine for […] as described (Echeverria et al. (2005)). Cell viability was assessed using the MTT assay (Sigma). As an alternative approach cell viability after exposure to Aβ and cotinine was assessed using the vital dye calcein-AM (green fluorescence) to stain live cells and propidium iodide to stain dead cells. MTT values were normalized to control values considered 100%.\nIt has been discovered that cotinine protects brain cortical cells against the toxicity of the Amyloid beta peptide. The cortical cells were exposed to 5 microM Aβ for 24 hours and 48 hours and analyzed for cell viability using two viability tests. Cell viability was quantified by MTT and propidium iodide (PI) and calcein-AM staining assays. MTT assay measures the mitochondrial conversion of the tetrazolium salt MTT (3-(4,5-dimethylthiazol-2-yl)-2,5-diphenyl tetrazolium bromide) to formazan. To perform the MTT assay the cell culture medium was replaced with medium containing MTT (0.5 mg/mL). Following 1-4 h of incubation at 37° C., MTT formazan crystals were dissolved in DMSO and absorbance at 570 nm was measured. Absorbance values are a measure of cell viability. MTT results are expressed as percentage of vehicle treated controls. MTT assays were performed by measuring the levels of formazan after dissolving the precipitates in DMSO. The double calcein—AM and PI staining, involves staining with PI (a fluorescent nucleic acid dye used for the staining of dead cells) and calcein-AM a compound that inside of live brain cells, is converted to the green fluorescent compound calcein. After 30 minutes of incubation of the cells with these compounds were washed and analyzed by fluorescence microscopy. […] Cotinine inhibits Abeta oligomerization and prevents its toxicity on cortical neurons.\nEmbryonic rat cortical neurons were cultured following the protocol described (Brewer (1995)) but using embryonic cortical tissues obtained from Brain Bits LLC (Springfield, Ill., USA). The brain tissues were dissociated by 0.05% (v/v) trypsin digestion and dissociated by repeated passages through a pipette tip. Cortical cells (2×10^5 cells, 1,250 cells/mm^2) were plated in Neurobasal E medium, supplemented with 2% B27, and 1 mM Glutamax and plated onto 20-mm tissue culture wells coated with poly-D-lysine (0.1 mg/ml). Then cortical cells were incubated at 37° C. in a humidified incubator with 95% air/5% CO2 for 7-10 days, before being used for cell viability and protein expression analysis.\nFor the Aβ neurotoxicity assay, after 7 days in vitro (DIV) the conditioned media of cortical cells was replaced with Neurobasal E medium, supplemented with 2% B27 without antioxidants (B27-AO; Invitrogen, Carlsbad, Calif.) for 2 h. […]\nCell viability was quantified by MTT and propidium iodide (PI) and calcein-AM staining. […] Following 1-4 h incubation at 37° C., MTT formazan crystals were dissolved in DMSO and absorbance at […] was measured. MTT results are expressed as a percentage of vehicle-treated controls.\nTo investigate the effect of cotinine on Aβ neurotoxicity, rat cortical cells were grown in conditions that permitted us to obtain a neuron-enriched culture (around 95% neuron and 5% glial cells) for 7-10 days. […] After 24 h, cell survival was assessed by using MTT and PI and calcein-AM cell viability assays. […]",
  "data": [
    {"compound": "CN1C(=O)CC[C@H]1c1cccnc1", "note": "[cotinine]", "values": [
      {"measurement": "cell survival, % of vehicle-treated control cells (MTT)", "setting": "5 μM Aβ + 10 μM cotinine, 24 h, 7 DIV cortical cells, Aβ alone 76%", "result": 85, "unit": "%"},
      {"measurement": "effect on Aβ neurotoxicity when cotinine is added after pre-aggregation of Aβ", "setting": "Aβ pre-incubated 3 h at 4° C. without cotinine, then added to media containing 10 μM cotinine", "result": "not able to block Aβ neurotoxicity"},
      {"measurement": "increase in cell viability versus Aβ alone", "setting": "Aβ pre-incubated with 10 μM cotinine 3 h at 4° C.", "result": 22, "unit": "%"},
      {"measurement": "viability at 10 µM", "setting": "Rattus norvegicus, Aβ pre-incubated with 10 μM cotinine 3 h at 4° C., then 24 h on cells, Aβ alone 66%±3.6", "result": 87.3, "unit": "%"},
      {"measurement": "lowest cotinine concentration protecting cortical cells against Aβ toxicity (MTT)", "setting": "added together with 5 μM Aβ, 24 h", "result": 1, "unit": "µM"}
    ]}
  ]
}
